Measured values: US20260250290A1 (BRISTOL-MYERS SQUIBB COMPANY, priority 2023, published 2026)

The molecules below were run against T1, full length SGK1 (Homo sapiens, UniProt O00141) (assay: SGK1 inhibition Assay A (Caliper LabChip electrophoretic separation of fluorescent peptide substrate and phosphorylated product)). Details: Assay A; 20 μM ATP, 40 min incubation; read-out: SGK1 IC50.
T1 construct: 125 μM full length SGK1 (Life Technologies Part #PR7358A); purchased Life Technologies PR7358A
T1 sequence (O00141 1-431): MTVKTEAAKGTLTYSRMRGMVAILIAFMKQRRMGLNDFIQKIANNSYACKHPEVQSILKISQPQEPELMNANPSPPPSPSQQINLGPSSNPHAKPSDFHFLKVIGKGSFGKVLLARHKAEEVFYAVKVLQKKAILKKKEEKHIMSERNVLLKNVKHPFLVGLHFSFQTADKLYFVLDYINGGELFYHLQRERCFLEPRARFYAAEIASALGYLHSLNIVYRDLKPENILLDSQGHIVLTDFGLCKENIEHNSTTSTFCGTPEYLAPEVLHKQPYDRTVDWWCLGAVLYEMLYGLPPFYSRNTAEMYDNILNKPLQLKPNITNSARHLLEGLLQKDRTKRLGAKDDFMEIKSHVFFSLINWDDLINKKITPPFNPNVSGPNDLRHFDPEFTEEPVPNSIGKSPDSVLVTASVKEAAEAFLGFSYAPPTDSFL
Assay type: biochemical

SMILES	IC50 [nM]
COC(=O)N1CC=C(c2cc(N3CCC[C@@H](NC(=O)c4sc(Cl)cc4OCCN4CCC(F)(F)CC4)C3)c3c(N)ncnn23)C1 [Example 284, methyl (R)-3-(4-amino-5-(3-(5-chloro-3-(2-(4,4-difluoropiperidin-1-yl)ethoxy)thiophene-2-carboxamido)piperidin-1-yl)pyrrolo[2,1-f][1,2,4]triazin-7-yl)-2,5-dihydro-1H-pyrrole-1-carboxylate]	18
COC(=O)N1CC=C(c2cc(N3CCC[C@@H](NC(=O)c4sc(Cl)cc4OCCN4CCC(F)(F)C4)C3)c3c(N)ncnn23)C1 [Example 285, Methyl (R)-3-(4-amino-5-(3-(5-chloro-3-(2-(3,3-difluoropyrrolidin-1-yl)ethoxy)thiophene-2-carboxamido)piperidin-1-yl)pyrrolo[2,1-f][1,2,4]triazin-7-yl)-2,5-dihydro-1H-pyrrole-1-carboxylate]	17
COC(=O)N1CC=C(c2cc(N3CCC[C@@H](NC(=O)c4sc(Cl)cc4OCCN4CCOC(C)C4)C3)c3c(N)ncnn23)C1 (stereo partly drawn) [Example 286, Methyl 3-(4-amino-5-((3R)-3-(5-chloro-3-(2-(2-methylmorpholino)ethoxy)thiophene-2-carboxamido)piperidin-1-yl)pyrrolo[2,1-f] [1,2,4]triazin-7-yl)-2,5-dihydro-1H-pyrrole-1-carboxylate]	23
COC(=O)N1CC=C(c2cc(N3CCC[C@@H](NC(=O)c4sc(Cl)cc4OCCN4C[C@@H](C)O[C@@H](C)C4)C3)c3c(N)ncnn23)C1 [Example 287, Methyl 3-(4-amino-5-((R)-3-(5-chloro-3-(2-((2S,6R)-2,6-dimethylmorpholino)ethoxy)thiophene-2-carboxamido)piperidin-1-yl)pyrrolo[2,1-f] [1,2,4]triazin-7-yl)-2,5-dihydro-1H-pyrrole-1-carboxylate]	22
COC(=O)N1CC=C(c2cc(N3CCC[C@@H](NC(=O)c4sc(Cl)cc4OCCN4CC(F)(F)C4)C3)c3c(N)ncnn23)C1 [Example 288, Methyl (R)-3-(4-amino-5-(3-(5-chloro-3-(2-(3,3-difluoroazetidin-1-yl)ethoxy)thiophene-2-carboxamido)piperidin-1-yl)pyrrolo[2,1-f][1,2,4]triazin-7-yl)-2,5-dihydro-1H-pyrrole-1-carboxylate]	16
COC(=O)N1CC=C(c2cc(N3CCC[C@@H](NC(=O)c4sc(Cl)cc4OCCN4CC5(COC5)C4)C3)c3c(N)ncnn23)C1 [Example 289, Methyl (R)-3-(5-(3-(3-(2-(2-oxa-6-azaspiro[3.3]heptan-6-yl)ethoxy)-5-chlorothiophene-2-carboxamido)piperidin-1-yl)-4-aminopyrrolo[2,1-f][1,2,4]triazin-7-yl)-2,5-dihydro-1H-pyrrole-1-carboxylate]	14
COC(=O)N1CC=C(c2cc(N3CCC[C@@H](NC(=O)c4sc(Cl)cc4OCCN4CC(OC)C4)C3)c3c(N)ncnn23)C1 [Example 290]	21
COC(=O)N1CC=C(c2cc(N3CCC[C@@H](NC(=O)c4sc(Cl)cc4OCCN4CCS(=O)(=O)CC4)C3)c3c(N)ncnn23)C1 [Example 291, Methyl (R)-3-(4-amino-5-(3-(5-chloro-3-(2-(1,1-dioxidothiomorpholino)ethoxy)thiophene-2-carboxamido)piperidin-1-yl)pyrrolo[2,1-f] [1,2,4]triazin-7-yl)-2,5-dihydro-1H-pyrrole-1-carboxylate]	8
COC(=O)N1CC=C(c2cc(N3CCC[C@@H](NC(=O)c4sc(Cl)cc4OCCN4CCCC4)C3)c3c(N)ncnn23)C1 [Example 292, Methyl (R)-3-(4-amino-5-(3-(5-chloro-3-(2-(pyrrolidin-1-yl)ethoxy)thiophene-2-carboxamido)piperidin-1-yl)pyrrolo[2,1-f] [1,2,4]triazin-7-yl)-2,5-dihydro-1H-pyrrole-1-carboxylate]	10
Nc1ncnn2c(-c3ccnc(C(F)F)c3)cc(N3CCC[C@@H](NC(=O)c4sc(Cl)cc4OCCN4CCC(F)(F)CC4)C3)c12 [Example 293, (R)-N-(1-(4-amino-7-(2-(difluoromethyl)pyridin-4-yl)pyrrolo[2,1-f][1,2,4]triazin-5-yl)piperidin-3-yl)-5-chloro-3-(2-(4,4-difluoropiperidin-1-yl)ethoxy)thiophene-2-carboxamide]	9
Nc1ncnn2c(-c3ccnc(C(F)F)c3)cc(N3CCC[C@@H](NC(=O)c4sc(Cl)cc4OCCN4CCC(F)(F)C4)C3)c12 [Example 294, (R)-N-(1-(4-amino-7-(2-(difluoromethyl)pyridin-4-yl)pyrrolo[2,1-f][1,2,4]triazin-5-yl)piperidin-3-yl)-5-chloro-3-(2-(3,3-difluoropyrrolidin-1-yl)ethoxy)thiophene-2-carboxamide]	7
CC1CN(CCOc2cc(Cl)sc2C(=O)N[C@@H]2CCCN(c3cc(-c4ccnc(C(F)F)c4)n4ncnc(N)c34)C2)CCO1 (stereo partly drawn) [Example 295, N-((R)-1-(4-amino-7-(2-(difluoromethyl)pyridin-4-yl)pyrrolo[2,1-f][1,2,4]triazin-5-yl)piperidin-3-yl)-5-chloro-3-(2-(2-methylmorpholino)ethoxy) thiophene-2-carboxamide]	7
C[C@@H]1CN(CCOc2cc(Cl)sc2C(=O)N[C@@H]2CCCN(c3cc(-c4ccnc(C(F)F)c4)n4ncnc(N)c34)C2)C[C@H](C)O1 [Example 296, N-((R)-1-(4-amino-7-(2-(difluoromethyl)pyridin-4-yl)pyrrolo[2,1-f][1,2,4]triazin-5-yl)piperidin-3-yl)-5-chloro-3-(2-((25,6R)-2,6-dimethylmorpholino)ethoxy)thiophone-2-carboxamide]	12
Nc1ncnn2c(-c3ccnc(C(F)F)c3)cc(N3CCC[C@@H](NC(=O)c4sc(Cl)cc4OCCN4CC(F)(F)C4)C3)c12 [Example 297]	19
CC(=O)N1CC=C(c2cc(N3CCC[C@@H](NC(=O)c4sc(Cl)cc4OCCN4CCNCC4)C3)c3c(N)ncnn23)C1 [Example 298, (R)-N-(1-(7-(1-acetyl-2,5-dihydro-1H-pyrrol-3-yl)-4-aminopyrrolo[2,1-f][1,2,4]triazin-5-yl)piperidin-3-yl)-5-chloro-3-(2-(piperazin-1-yl)ethoxy)thiophene-2-carboxamide]	14
CC(=O)N1CC=C(c2cc(N3CCC[C@@H](NC(=O)c4sc(Cl)cc4OCCN4CCC(C)(O)CC4)C3)c3c(N)ncnn23)C1 [Example 299, (R)-N-(1-(7-(1-acetyl-2,5-dihydro-1H-pyrrol-3-yl)-4-aminopyrrolo[2,1-f][1,2,4]triazin-5-yl)piperidin-3-yl)-5-chloro-3-(2-(4-hydroxy-4-methylpiperidin-1-yl)ethoxy)thiophene-2-carboxamide]	7
CC(=O)N1CC=C(c2cc(N3CCC[C@@H](NC(=O)c4sc(Cl)cc4OCCN4CCC(C)(N)CC4)C3)c3c(N)ncnn23)C1 [Example 300, (R)-N-(1-(7-(1-acetyl-2,5-dihydro-1H-pyrrol-3-yl)-4-aminopyrrolo[2,1-f][1,2,4]triazin-5-yl)piperidin-3-yl)-3-(2-(4-amino-4-methylpiperidin-1-yl)ethoxy)-5-chlorothiophene-2-carboxamide]	1
